Values joined by “and” are separate entries in the source; they are usually repeats but may differ in a detail not shown here. Equal entries are not always repeated.
Legend:
Type in all cases: cell-based
[1] = test system: B. napus microspore cultures; assay: Microspore embryogenesis induction in isolated microspore culture (proembryos at 4 days), liquid medium; conditions: for concentrations that provided an improvement of embryogenesis initiation yield: B. napus microspore cultures, proembryos at 4 days vs control, 3-4 concentrations tested; for increase in the percentage of proembryos: 4 days, vs control cultures normalized to 100%
Protocol: B. napus L. (rapeseed) cv. ‘Topas’ line DH407 plants were used as donor plants. Rapeseed seeds were germinated and grew under controlled conditions (relative humidity 60%, 15° C. under long-day photoperiod 16 h light and 8 h dark at 10° C.) in a growth chamber in pots containing a mixture of organic substrate and vermiculite (2/1, v/v).
Flower buds containing vacuolated microspores, the most responsive stage for microspore induction, were isolated for microspore culture as previously described (Prem et al., 2012 BMC Plant Biology 12, 127). The selected buds were surface-sterilized in 5.0% (v/v) commercial bleach (5% active chlorine) for 20 min and then rinsed 6-7 times with sterile distilled water. Ten to 15 buds were crushed using a cold mortar and pestle in 5 ml of cold NLN-13 medium containing 13% sucrose (w/v). The suspension was filtered through 48 μm nylon mesh and the filtrate collected in 15-ml falcon centrifuge tubes. The crushed buds were rinsed with 5 ml NLN-13 to make up the volume to 10 ml and the filtrate was then centrifuged at 1100 rpm for 5 min at 4° C. The pellet was re-suspended in 10 ml of cold NLN-13 and centrifuged as mentioned above. This process was repeated three times for washing of the microspores. The final pellet was suspended in the NLN-13, and the cell density was adjusted to 10,000 cells per ml. The cell suspension was then poured into 90-mm Petri dishes (10 ml per Petri dish) and cultured in darkness. For embryogenesis induction, microspore cultures were subjected to an in vitro stress treatment of 32° C. for 15 days. In response to the inductive treatment, responsive microspores divide and produce multicellular structures or proembryos, still confined within the microspore wall (exine). Such structures are considered to be the first sign of embryogenesis initiation; they can be found after 4-6 days in culture. When globular/heart shaped embryos were observed (around 20 days), cultures were shifted to 25° C. on a gyratory shaker at 60 rpm until complete development and maturation of the embryos was observed (FIG. 1), normally around 30 days in culture.
The compounds were added to the microspore liquid culture media by using stock solutions of 10 mM in DMSO. Appropriate volumes of stock solutions of the drugs were added to the culture media to get the selected working concentrations of the inhibitors, keeping DMSO concentration below 0.2%. • In B. napus microspore cultures: 4-benzyl-2-methyl-1,2,4-thiadozilidine-3,5-dione (TDZD8), 5-(2-Morpholinethylimino)-2,3-diphenyl-2,5-dihydro-1,2,4-thiadiazole (VP3.15), 3-acetyl-4-(1-methyl-1H-indol-3-yl)-1H-pirrol-2,5-dione (VP3.36), 4-hydroxy-1-ethyl-N′-palmitoyl-2-oxo-1,2-dihydroquinoline-3-carbohydrazide (VP0.7), N-(6-methylbenzothiazole-2-yl)-4-morpholinobenzamide (JZ1.3), N-(6-fluorobenzothiazole-2-yl)-4-morpholinobenzamide, (JZ1.6) and N-(6-bromobenzothiazole-2-yl)-4-morpholinobenzamide (JZ1.24). and (E,Z)-3-(morpholinoimino)indolin-2-one (IGS4.75) were tested at 3-4 different concentrations, ranging from 0.5 to 5 μM. • In H. vulgare microspore cultures: 4-benzyl-2-methyl-1,2,4-thiadozilidine-3,5-dione (TDZD8) and N-(6-bromobenzothiazole-2-yl)-4-morpholinobenzamide (JZ1.24) inhibitors at the selected concentrations (2.5 μM and […], respectively) were tested.
The compounds were added from culture initiation and their effect on embryogenesis efficiency was assessed. Several plates of the same cultures were kept without the inhibitors, as controls.
Embryogenesis induction was quantified in control and treated-cultures by the number of proembryos formed (considered the first sign of embryogenesis initiation), as previously described, and by the number of embryos produced after 40 days. Proembryos were easily identified under inverted microscope in 4 day-culture plates as rounded multicellular structures with higher size and density than microspores, still surrounded by the exine (special microspore wall). […]

[2] = test system: H. vulgare microspore cultures; assay: Microspore embryogenesis induction in isolated microspore culture (proembryos at 4 days, embryos at 40 days), liquid medium; conditions: for increase in proembryo formation: 4 days; for increment of total number of embryos produced per plate: 40 days, vs control, selected concentrations (2.5 μM TDZD8, 5 μM JZ1.24)
Protocol: H. vulgare L. cv. Igri plants were used as donor plants. Seeds were vernalized in soil for one month at 4° C., and then transferred for one month in a plant growth chamber at 18° C. for germination and growth. Finally, plants were transferred to a greenhouse under 18° C. temperature.
Spikes containing microspores at the stage of vacuolated microspore, the most responsive stage for embryogenesis induction, were collected and surface sterilized by immersion in 5% bleach for 20 min, followed by 4 washes with sterile distilled water. Isolated microspore culture was settled as previously described (Rodŕiguez-Serrano et al., 2012, Journal of Experimental Botany 63(5), 2007-2024). The sterilized spikes were pre-treated at 4° C. for 21-24 days as stress treatment to induce microspore embryogenesis. Microspore were isolated blending spikes in 20 ml of pre-cooled 0.4 M mannitol at 4° C., using a Waring Blender pre-cooled in a refrigerator at −20° C., and the extract was filtered through a 100 μm nylon mesh into a beaker pre-cooled at −20° C. The collected microspore suspension was transferred into a 50 ml tube and centrifuged at 800 rpm for 10 min at 4° C. After removing the supernatant, the pellet was resuspended in 4 ml of pre-cooled 0.55 M maltose and transferred in 15 ml falcon tube. 1.5 ml of 0.4 M mannitol solution were cautiously added unmixed. After gradient centrifugation at 800 rpm for 10 min at 4° C., the interphase band consisting of an almost pure population of vacuolated microspores was resuspended in 0.4M mannitol solution giving a final volume of 10 ml. After counting cells in the Neubauer chamber, the pelleted microspores were diluted in an appropriate volume of KBP medium to obtain a cell density of 1.1×10^5 cells per ml, and plated in 30 mm Petri dishes, at a volume of 1 ml per plate. Then, microspore cultures were incubated at 25° C. in the dark, and microspores reprogrammed and produced multicellular structures/proembryos that can be found after 4-6 days in culture, as the first sign of embryogenesis initiation. Proembryos further developed and produced coleoptylar and mature embryos (FIG. 2), which were observed after 30 days.
The compounds were added to the microspore liquid culture media by using stock solutions of 10 mM in DMSO. […]
The compounds were added from culture initiation and their effect on embryogenesis efficiency was assessed. […]
Embryogenesis induction was quantified in control and treated-cultures by the number of proembryos formed (considered the first sign of embryogenesis initiation), as previously described, and by the number of embryos produced after 40 days. […]

[3] = test system: proembryos of B. napus microspore cultures; assay: DAPI staining of proembryos, fluorescence microscopy of squash preparations; conditions: 4 days in culture
Protocol: In order to evaluate whether proembryo structures of treated cultures, identified under the inverted microscope for quantification, were actually dividing microspores, similar to the same structures in control cultures, a simply staining technique was performed to visualize nuclei inside proembryos. Samples from control and treated-cultures of 4 days, containing proembryos, were stained with 10 μg/mL 4′,6-diamidine-2-phenyl indole dihydrochloride (DAPI). Squash preparations were analysed under fluorescence microscopy using UV excitation for observing nuclei.

| SMILES | concentrations that provided an improvement of embryogenesis initiation yield [1] | further results |
| --- | --- | --- |
| O=C1Nc2ccccc2C1=NN1CCOCC1 [IGS4.75, (E,Z)-3-(morpholinoimino)indolin-2-one] | 5 µM |  |
| Cc1ccc2nc(NC(=O)c3ccc(N4CCOCC4)cc3)sc2c1 [JZ1.3, N-(6-methylbenzothiazole-2-yl)-4-morpholinobenzamide] | 5 µM |  |
| O=C(Nc1nc2ccc(F)cc2s1)c1ccc(N2CCOCC2)cc1 [JZ1.6, N-(6-fluorobenzothiazole-2-yl)-4-morpholinobenzamide] | 1 µM |  |
| O=C(Nc1nc2ccc(Br)cc2s1)c1ccc(N2CCOCC2)cc1 [JZ1.24, N-(6-bromobenzothiazole-2-yl)-4-morpholinobenzamide] | 2.5 µM | increase in the percentage of proembryos ([1]; 2.5 μM): 27.5%; increase in proembryo formation ([2]; 5 μM): 47%; increment of total number of embryos produced per plate [2]: 22% |
| Cn1sc(=O)n(Cc2ccccc2)c1=O [TDZD8, 4-benzyl-2-methyl-1,2,4-thiadozilidine-3,5-dione, reference compound] | 0.5 µM and 1 µM | increase in the percentage of proembryos ([1]; 0.5 μM): 20%; nuclei in proembryos (DAPI staining) [3]: proembryos contain several nuclei; increase in proembryo formation ([2]; 2.5 μM): 27%; increment of total number of embryos produced per plate [2]: 15% |
| CCCCCCCCCCCCCCCC(=O)NNC(=O)c1c(O)c2ccccc2n(CC)c1=O [VP0.7, 4-hydroxy-1-ethyl-N′-palmitoyl-2-oxo-1,2-dihydroquinoline-3-carbohydrazide] | 5 µM |  |
| c1ccc(-c2nc(=NCCN3CCOCC3)sn2-c2ccccc2)cc1 [VP3.15, 5-(2-Morpholinethylimino)-2,3-diphenyl-2,5-dihydro-1,2,4-thiadiazole] | 2.5 µM |  |
| CC(=O)C1=C(c2cn(C)c3ccccc23)C(=O)NC1=O [VP3.36, 3-acetyl-4-(1-methyl-1H-indol-3-yl)-1H-pirrol-2,5-dione] | 2.5 µM |  |
